The record followed here is patent EP0429333B1, “Process for producing oxazopyrroloquinolines, novel oxazopyrroloquinolines, and use of oxazopyrroloquinolines” (priority 1989, dated 1991).

The LD50 is the dose at which mortality reaches 50%. Higher therefore signals a less toxic substance.

One data set is described as follows: in vivo. Conditions: mouse, in vivo, ip. The method, then: (§1) (1) Acute toxicity test: • (i) To male SPF-ICR mice of 5 weeks old (supplied by Charles River Co.) were intraperitoneally administered PQQ·2Na and OPQs in the dosages of 20, 40, 80, 160 and 200 mg/kg body weight of mouse, respectively and they were bred at 25°C for 14 days. OPQ, 1-methylpropyl OPQ, 2-methylthioethyl OPQ, and benzyl OPQ were used as the OPQs. One group consisted of 8 mice. […] One group consisted of 8 mice. […] They were bred at 25°C for 14 days. One group consisted of eight mice. […] (2) Toxicity to kidney (i) Toxicity to kidney determined by urine examination: In the same manner as in the acute toxicity test, PQQ·2Na and OPQs were respectively intraperitoneally administered to mice and these mice were bred. Urine was collected every day and concentration of glucose in urine was obtained using Uristex II (manufactured by Miles·Sankyo Co.). […]

In a further data set the test system is male SPF-ICR mice. The experiment in a line: Acute toxicity test. The method, then:
as §1

The subject of a further data set is kidney. Briefly: Toxicity to kidney determined by blood examination. The data set is classed as in vivo, mice. To be noted: mouse, in vivo, ip. The protocol:
After one day from administration, the mice were fasted (only water was given) and after lapse of 18 hours, blood was collected and serum was obtained therefrom. Glucose, urea nitrogen and creatinine in the serum were examined using FUJI Dry Chemslide (manufactured by Fuji Photo Film Co., Ltd.). […]
Thereafter, the mice were fasted (with giving only water) and after lapse of 18 hours, blood was collected and serum was obtained therefrom. Contents of glucose, urea nitrogen and creatinine in serum were obtained using FUJI Dry Chemslide. The results were shown by average value for eight mice.

Another data set relates to cataract. Briefly: Anti-cataract effect, intraperitoneal administration, 50 % galactose fed rats. Format: in vivo, Sprague-Davley rats. Conditions: for Body weight (average): 20mg/kg rat intraperitoneally once a day. The method, then: Eightyfour male Sprague-Davley rats (supplied from Japan Charles Liver Co.) of four weeks old and having a body weight of 70 - 80 g were used and the following experiments were conducted. One group consisted of six rats.
The groups included normal group, 50 % galactose administration group, PQQ administration group, and OPQ administration group. Commercially available feeding stuff (manufactured by Japan Clea Co.) was given to the rats of normal group, and rats of 50 % galactose administration group, PQQ administration group and OPQ administration group were allowed to freely take powdery feeding stuff comprising a mixture of the above-mentioned commercially available powder feeding stuff and D-galactose for food additive in equal weight.
To the rats of PQQ and OPQ administration groups were intraperitoneally administered PQQ·2Na or OPQ in a dosage of 2 mg, 5 mg, 10 mg and 20 mg per 1 kg of rat once a day simultaneously with starting of galactose feeding and until termination of feeding.
On the 6th day and the 9th day from starting of experiment, eyeball was observed by stereoscopic microscope and judgment on cataract was made according to the following criteria. A0: No muddiness (normal) A1: Light white muddiness in the surface portion. A2: A slight heavy white muddiness in the surface portion. A3: Heavy white muddiness in the surface portion. A4: Heavy white muddiness in the surface portion and a slight white muddiness in the core portion. A5: Heavy white muddiness in the surface portion and the core portion.

Consider `O=C(O)c1cc(C(=O)O)c2c(n1)C(=O)C(=O)c1cc(C(=O)O)[nH]c1-2` [PQQ·2Na, reference compound], for which the LD50 at 336 h in “in vivo” is around 70 mg/kg. The death of mice result in the data set on male SPF-ICR mice (80 mg intraperitoneally, 8 mice, 14 days) is reported as “five mice died”; with male SPF-ICR mice (160 mg and 200 mg intraperitoneally, 8 mice, 14 days) it was “all of eight mice died”; in the data set on male SPF-ICR mice (mouse, in vivo), “the mice survived”. Also, the Creatinine with kidney (20 mg/kg) was found to be 0.8 mg/dL; in the data set with kidney (40 mg/kg) it was 2.3 mg/dL; in the data set on kidney (80 mg/kg), 3.4 mg/dL; in the data set on kidney (160 mg/kg) it was 4.2 mg/dL. For the same compound, the Glucose turned out to be 70 mg/dL with kidney (20 mg/kg), 60 mg/dL with kidney (40 mg/kg), 57 mg/dL in the data set on kidney (80 mg/kg) and 35 mg/dL in the data set with kidney (160 mg/kg). Moreover, the Urea nitrogen with kidney (20 mg/kg) amounted to 25 mg/dL; with kidney (40 mg/kg), 110 mg/dL; in the data set on kidney (80 mg/kg) it was 130 mg/dL; in the data set on kidney (160 mg/kg), 139 mg/dL. In addition, the body weight entry in the data set on cataract (10 mg and 20 mg/kg rat intraperitoneally once a day) was “reduction in body weight was recognized”. In addition, the “Body weight (average)” value in the data set on cataract (6th day, normal group about 115 g) was “* Body weight reduced (average 66 g). Body weight of rats of normal group was about 115 g on the average”; with cataract (9th day, normal group about 141 g) it was “** Body weight did not increase (average 77 g). Body weight of rats of normal group was about 141 g on the average”.
